Data taken from US7307063B2, “Melanocortin metallopeptides for treatment of sexual dysfunction” (Palatin Technologies, Inc., priority 2001, dated 2007).
Non-standard residues stand in square brackets, D forms with d. No end group written: not given here. *: point of attachment. 2Nal = N[C@@H](Cc1ccc2ccccc2c1)C(=O)O; Heptanoyl = CCCCCCC(=O)*; Nle = CCCC[C@H](N)C(=O)O

What was measured:
MC4-R = biological target: T1, MC4-R (Homo sapiens, UniProt P32245); test: Competitive binding assay: inhibition of 125I-NDP-α-MSH binding to HEK-293 membranes with cloned human receptor subtype 4; details: Table 6, mean of triplicate
T1 construct: expressed in transfected cells; host or cells: HEK-293
Description: (§1) Rhenium-complexed metallopeptides of the formulas given in Table 1 were prepared, with the metallopeptides complexed with rhenium using the rhenium transfer agent ReOCl3(PPh3)2 in the presence of 1,8-Diazabicyclo[5,4,0] undec-7-ene as a base, as disclosed in International Application PCT/US00/16396, filed Jun. 14, 2000, Melanocortin Metallopeptide Constructs, Combinatorial Libraries and Applications, incorporated by reference herein. Affinities of compounds were measured using membranes from HEK-293 cells containing cloned human melanocortin receptor subtypes 3, 4 and 5. MC1-R membranes were isolated from B16—F10 mouse melanoma cells. The assay tube also contained a chosen concentration of the test peptide of this invention, complexed to a rhenium metal ion as indicated, for determining its efficacy in inhibiting the binding of ^125I-NDP-α-MSH to its receptor. Non-specific binding was measured by complete inhibition of binding of ^125I-NDP-α-MSH in the assay with the presence of 1 μM α-MSH. 100% specific binding was defined as the difference in radioactivity (cpm) bound to cell membranes in the absence and presence of 1 μM α-MSH. The cpm obtained in presence of test compounds were normalized with respect to 100% specific binding to determine the percent inhibition of ^125I-NDP-α-MSH binding.
(§2) Peptide sequences set forth in Table 6 were prepared using conventional synthetic means. The resulting sequences were rhenium-complexed to form metallopeptides, with the metallopeptides complexed with rhenium using the rhenium transfer agent ReOCl3(PPh3)2 in the presence of 1,8-Diazabicyclo[5,4,0] undec-7-ene as a base. Percent inhibition was determined as in Example 1 using the Re-complexed metallopeptides, using the same methods as described therein. All measures are means of triplicate determinations.

MC1-R = biological target: T2, MC1-R (Mus musculus, UniProt Q01727); test: Competitive binding assay: inhibition of 125I-NDP-α-MSH binding to membranes from B16-F10 mouse melanoma cells; details: Table 6, mean of triplicate
T2 construct: MC1-R membranes were isolated from B16—F10 mouse melanoma cells; endogenous in cells; host or cells: B16-F10 mouse melanoma cells
Description: as §1, §2

T2 sequence (Q01727 whole entry): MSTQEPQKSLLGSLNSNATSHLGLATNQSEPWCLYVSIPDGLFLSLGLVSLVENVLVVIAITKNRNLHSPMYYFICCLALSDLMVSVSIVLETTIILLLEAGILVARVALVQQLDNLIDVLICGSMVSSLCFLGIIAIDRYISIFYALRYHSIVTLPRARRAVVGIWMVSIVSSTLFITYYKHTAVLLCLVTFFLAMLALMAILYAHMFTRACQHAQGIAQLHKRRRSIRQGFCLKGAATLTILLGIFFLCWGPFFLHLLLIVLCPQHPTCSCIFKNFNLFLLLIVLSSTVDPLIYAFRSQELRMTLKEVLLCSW
T1 sequence (P32245 whole entry): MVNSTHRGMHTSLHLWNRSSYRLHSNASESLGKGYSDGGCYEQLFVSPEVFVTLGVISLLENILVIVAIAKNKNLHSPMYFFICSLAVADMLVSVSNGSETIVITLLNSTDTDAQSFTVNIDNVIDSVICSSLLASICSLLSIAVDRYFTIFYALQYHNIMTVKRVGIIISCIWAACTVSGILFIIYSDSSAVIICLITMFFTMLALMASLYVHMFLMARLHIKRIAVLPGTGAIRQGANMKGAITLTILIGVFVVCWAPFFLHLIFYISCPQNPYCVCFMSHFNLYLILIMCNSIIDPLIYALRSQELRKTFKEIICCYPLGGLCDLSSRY

% Inhibition of Binding hMC4-R (MC4-R; 1 μM)	% Inhibition of Binding MC1-R (MC1-R; 1 μM)	also measured	Substance
98%			1-Naphthylacetyl-Arg-Arg-D-Phe(4′-Cl)-Cys-Nal 2′-NH2
92%	77%		1′-Naphthyl acetyl-Arg-Arg-D-Phe(3′-Cl)-Cys-Trp-NH2
98%	97%		1′-Naphthyl acetyl-Arg-Arg-D-Phe(4′-Cl)-Cys-Trp-NH2
90%	78%		2′-Naphthyl acetyl-Arg-Arg-D-Phe(3′-Cl)-Cys-Trp-NH2
96%	93%		2′-Naphthyl acetyl-Arg-Arg-D-Phe(4′-Cl)-Cys-Trp-NH2
84%	23%		3′-Br Phenyl acetyl-Arg-Ala-D-Phe(3′-Cl)-Cys-Trp-NH2
95%	22%		3′-Br Phenyl acetyl-Arg-Ala-D-Phe(4′-CF3)-Cys-Trp-NH2
96%	25%		3′-Br Phenyl acetyl-Arg-Ala-D-Phe(4′-Me)-Cys-Trp-NH2
96%	79%		3′-Br Phenyl acetyl-Arg-Arg-D-Phe(3′-Cl)-Cys-Trp-NH2
61%	97%		3′-Br-Phenylacetyl-Arg-Arg-D-Phe(4′-CH2PO3Et3)-Cys-Trp-NH2
73%	34%		3′-Br-Phenylacetyl-Lys-Ala-D-Phe(4′-CH3)Cys-Lys-NH2
69%	65%		3′-Br-Phenylacetyl-Lys-Lys-D-Phe(4′-CH3)Cys-Lys-NH2
95%	21%		3′-Cl Phenyl acetyl-Arg-Ala-D-Phe(4′-CF3)-Cys-Trp-NH2
99%	85%		3′-Cl Phenyl acetyl-Arg-Arg-D-Phe(4′-CF3)-Cys-Trp-NH2
52%	97%		3′-Cl-Phenylacetyl-Arg-Arg-D-Phe(4′-CH2PO3Et3)-Cys-Trp-NH2
84%	61%		4′-Aminomethyl-Phenylacetyl Arg-Arg-Ala-D-Phe(4′-Cl)-Cys-Trp-NH2
		% Inhibition of Binding hMC4-R (MC4-R; 0.1 μM): 57%; % Inhibition of Binding MC1-R (MC1-R; 0.1 μM): 81%	4′-Aminomethyl-Phenylacetyl-Arg-Arg-D-Phe(4′-Cl)-Cys-Trp-NH2
		% Inhibition of Binding hMC4-R (MC4-R; 0.1 μM): 80%; % Inhibition of Binding MC1-R (MC1-R; 0.1 μM): 64%	(N-PhEt)-D-Phe(2′-Cl)-Lys-Nal 2′-Cys-NH2
46%	23%		(R)-4-amino-5-phenyl pentanoyl-Lys-Ala-D-Phe(4′-Me)-Cys-Trp-NH2
99%	84%		Ac-His-HyP(Bzl)-D-Phe(2′-Cl)-Arg-Nal 2′-Cys-NH2
0%	8%		Ac-KA[dF][dC]R-NH2
13%	25%		Ac-KA[dF][dC]RW-NH2
36%	23%		Ac-Nle-Arg-Ala-D-Nal 2′-Cys-Lys-NH2
96%	100%		Ac-Nle-Arg-Arg-D-Nal 2′-Cys-Lys-NH2
		% Inhibition of Binding hMC4-R (MC4-R; 0.1 μM): 96%; % Inhibition of Binding MC1-R (MC1-R; 0.1 μM): 95%	Ac-Nle-Arg-Arg-D-Nal 2′-Cys-Trp-Lys-NH2
97%	49%		Ac-Ser(Bzl)-D-Phe(4′-Cl)-Arg-Nal 2′-Cys-NH2
0%	24%		Ac-WA[dF][dC]R-NH2

% Inhibition of Binding hMC4-R (MC4-R; 1 μM)	% Inhibition of Binding MC1-R (MC1-R; 1 μM)	also measured	Substance
3%	15%		Ac-WA[dF][dC]RW-NH2
41%	87%		Ac-[Nle]AH[dF]RW[dC]K-NH2
0%	22%		Ac-[Nle]A[dF][dC]R-NH2
3%	29%		Ac-[Nle]A[dF][dC]RW-NH2
97%	69%		D-(N-Bzl) Phe(2′-Cl)-Lys-Nal 2′-Cys-NH2
69%	51%		D-Phe(2′-Cl)-Lys-Nal 2′-Cys-NH2
		% Inhibition of Binding hMC4-R (MC4-R; 0.01 μM): 73%; % Inhibition of Binding MC1-R (MC1-R; 0.01 μM): 43%	D-Phe(4′-Cl)-Arg-Nal 2′-Cys-Lys-NH2
81%			D-Phe-Arg-Trp-Cys-Lys-NH2 ([dF]RWCK-NH2; also: metallopeptide)
70%	90%		D-Phe-Arg-Trp-Cys-Trp-NH2 ([dF]RWCW-NH2; also: metallopeptide)
12%	21%		FR[dW]CK-NH2
34%	37%		FR[dW]CW-NH2
18%	15%		Heptanoyl-Ala-Nal 2′-Cys-Trp-NH2 (Heptanoyl-A[2Nal]CW-NH2; also: metallopeptide, metal not given here)
20%	10%		Heptanoyl-D-Hphe-D-Phe(2′-Cl)-Lys-Nal 2′-Cys-NH2
75%	82%		Heptanoyl-D-Phe-Arg-Trp-Cys-Lys-NH2 (Heptanoyl-[dF]RWCK-NH2; also: metallopeptide)
98%	100%		Heptanoyl-H[dF]RWCK-NH2
		% Inhibition of Binding hMC4-R (MC4-R; 0.1 μM): 80%; % Inhibition of Binding MC1-R (MC1-R; 0.1 μM): 45%	Heptanoyl-Hphe-D-Phe(4′-Cl)-Arg-Trp-Cys-NH2
97%	99%		Heptanoyl-P[dF]RWCK-NH2
32%	92%		Heptanoyl-R[dF]GWCK-NH2
100%	72%		Heptanoyl-Ser(Bzl)-D-Nal 2′-Arg-Trp-Cys-Lys-NH2
0%	27%		Heptanoyl-Ser(Bzl)-D-Nal 2′-Gly-Trp-Cys-Lys-NH2
82%	27%		Heptanoyl-Ser(Bzl)-D-Phe(2′-Br)-Lys-Nal 2′-Cys-NH2
6%	12%		Heptanoyl-Ser(Bzl)-D-Phe(2′-Cl)-Lys-Hphe-Cys-NH2
91%	62%		Heptanoyl-Ser(Bzl)-D-Phe(2′-Cl)-Lys-Nal 2′-Cys-NH2
19%	20%		Heptanoyl-Ser(Bzl)-D-Phe(2′-Cl)-Lys-Phe-Cys-NH2
15%	16%		Heptanoyl-Ser(Bzl)-D-Phe(2′-Cl)-Lys-Phg-Cys-NH2
83%	57%		Heptanoyl-Ser(Bzl)-D-Phe(2′-F)-Lys-Nal 2′-Cys-NH2
